Assays:
[1] = target: T1, recombinant ADAMTS1 (p65-ADAMTS1) expressed in E. coli (Homo sapiens, UniProt Q9UHI8); assay: FRET peptide cleavage assay (Abz/Dnp), dose-response; type: biochemical
T1 construct: 1452 nt cDNA fragment (nt 1206-2657, 484 codons; propeptide and C-terminal part absent; primer starts at KRFVSS, ends ISGSVTSA); pET32a Trx fusion, Trx removed by enterokinase, C-terminal His tag; E. coli BL21(DE3); heparin-sepharose purified; fusion about 70 kDa
T1 sequence (Q9UHI8 251-734): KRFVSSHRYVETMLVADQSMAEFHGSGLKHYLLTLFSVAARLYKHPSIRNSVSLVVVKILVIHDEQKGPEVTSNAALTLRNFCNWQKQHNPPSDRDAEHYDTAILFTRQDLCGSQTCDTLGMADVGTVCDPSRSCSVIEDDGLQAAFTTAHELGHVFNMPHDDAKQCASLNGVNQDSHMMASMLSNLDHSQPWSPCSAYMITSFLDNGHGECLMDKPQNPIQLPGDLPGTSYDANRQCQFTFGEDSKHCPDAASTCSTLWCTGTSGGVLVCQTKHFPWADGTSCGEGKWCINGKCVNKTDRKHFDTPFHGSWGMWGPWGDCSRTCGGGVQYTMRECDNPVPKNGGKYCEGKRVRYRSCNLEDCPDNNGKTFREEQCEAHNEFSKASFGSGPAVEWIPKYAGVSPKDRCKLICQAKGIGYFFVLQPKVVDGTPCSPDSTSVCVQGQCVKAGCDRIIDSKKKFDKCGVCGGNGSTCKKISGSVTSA
From the text: FRET peptide cleavage assay (Abz/Dnp), dose-response on recombinant ADAMTS1 (p65-ADAMTS1) expressed in E. coli

[2] = target: T2, human recombinant ADAMTS1 expressed in the murine myeloma cell line (R&D Systems) (Homo sapiens, UniProt Q9UHI8); assay: as above; type: biochemical
T2 construct: commercial recombinant protein from R&D Systems, murine myeloma cell line
T2 sequence (Q9UHI8 253-967): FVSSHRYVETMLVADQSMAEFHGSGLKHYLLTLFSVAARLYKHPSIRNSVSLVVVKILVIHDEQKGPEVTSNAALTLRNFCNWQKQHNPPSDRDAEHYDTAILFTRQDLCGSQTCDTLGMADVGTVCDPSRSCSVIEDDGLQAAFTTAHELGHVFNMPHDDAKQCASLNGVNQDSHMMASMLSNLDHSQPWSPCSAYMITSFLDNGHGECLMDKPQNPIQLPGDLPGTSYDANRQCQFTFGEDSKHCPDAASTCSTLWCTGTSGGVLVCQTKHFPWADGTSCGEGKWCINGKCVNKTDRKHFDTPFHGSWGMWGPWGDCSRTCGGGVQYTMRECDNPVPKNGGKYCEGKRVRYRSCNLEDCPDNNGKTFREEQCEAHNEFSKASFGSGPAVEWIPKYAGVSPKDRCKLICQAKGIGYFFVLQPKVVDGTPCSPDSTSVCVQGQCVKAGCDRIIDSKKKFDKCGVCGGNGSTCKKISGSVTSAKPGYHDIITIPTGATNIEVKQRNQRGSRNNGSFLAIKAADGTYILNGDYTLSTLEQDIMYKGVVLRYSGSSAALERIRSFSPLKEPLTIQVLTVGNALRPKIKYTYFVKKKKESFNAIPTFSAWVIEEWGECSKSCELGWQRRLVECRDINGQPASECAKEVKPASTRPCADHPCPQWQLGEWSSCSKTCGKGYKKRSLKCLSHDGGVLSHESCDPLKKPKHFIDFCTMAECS
From the text: FRET peptide cleavage assay (Abz/Dnp), dose-response on human recombinant ADAMTS1 expressed in the murine myeloma cell line (R&D Systems)

IC50 [1] [µM]	IC50 [2] [µM]	SMILES
11.9 ± 0.7	10.7 ± 0.6	CC1=C[C@H](c2cc3cc(-c4cc(O)cc(O)c4)oc3cc2O)[C@@H](C(=O)c2ccc(O)cc2O)[C@H](c2ccc(O)cc2O)C1 [J14715, albafuran C]
7.6 ± 0.6	5.5 ± 0.4	CC1=C[C@H](c2cc(/C=C/c3cc(O)cc(O)c3)c(O)cc2O)[C@@H](C(=O)c2ccc(O)cc2O)[C@H](c2ccc(O)cc2O)C1 [J14713, kuwanon P]

From paper PMC6264766, “Fluorescence Resonance Energy Transfer Assay for High-Throughput Screening of ADAMTS1 Inhibitors” (Molecules, 2011)
